Assay [1] has as its target interaction of Rheb with PDEδ (Homo sapiens, UniProt O43924). The conditions noted are these: 5 µM, live MDCK cells, measured by FLIM.
Procedure: To address whether the novel compounds that target the farnesyl binding pocket in PDEδ inhibit the interaction between PDEδ and Ras family proteins in live cells, fluorescence lifetime imaging microscopy (FLIM)-based quantitative fluorescence resonance energy transfer (FRET) measurements were carried out. These experiments allow the quantitative determination of the fraction (α) of interacting mCitrine (a yellow fluorescent protein) tagged Ras proteins with mCherry (a red fluorescent protein) tagged PDEδ in living cells by the change in the fluorescence lifetime (τav) of the mCitrine fused to Ras. mCitrine-Rheb was selected as the farnesylated Ras family protein due to its more clearly measurable interaction with mCherry-PDEδ in live cells.
All cells were routinely maintained in MEM Eagle's medium supplemented with 10% FBS, 1% non-essential amino acids and 1% L-glutamine. […]
Fluorescence lifetime images were acquired using a confocal laser scanning microscope (FV1000, Olympus) equipped with a time-correlated single-photon counting module (LSM Upgrade Kit, Picoquant). […] Photons were detected using a single-photon counting avalanche photodiode (PDM Series, MPD) and timed using a single-photon counting module (PicoHarp 300, Picoquant).
Assay [2] has as its system mCherry-K-Ras in PancTul cells. Description: Time series of mCherry-K-Ras redistribution in PancTul cells. Type of assay: cell-based, human. The conditions noted are these: 5µM.
For the next assay, the system named is CAPAN-1 cells. Description: Real time cell analysis (RTCA) of CAPAN-1 cells. Type of assay: cell-based. As to conditions: 5µM, K-Ras dependent pancreatic tumor cell.
Assay [3] relates to mCherry-K-Ras in Panc1 cells. The experiment in a line: Time series of mCherry-K-Ras redistribution in Panc1 cells. Type of assay: cell-based, human. The conditions noted are these: 5µM.
A further assay concerns Erk. Description: Western blot of ERK signaling (Erk phosphorylation) in PANC-TUI cells. Type of assay: cell-based, human. The conditions noted are these: 5 µM, EGF, measured by phosphorylation. On the technique in general: Immunoblotting shows a protein as a band on a membrane.
The next assay relates to PANC-TUI cells. The experiment in a line: Real time cell analysis (RTCA) of PANC-TUI cell proliferation. Type of assay: cell-based, human. The conditions noted are these: 5µM, K-Ras dependent pancreatic tumor cell. As for the experimental part:
To address whether the novel compounds that target the farnesyl binding pocket in PDEδ inhibit the interaction between PDEδ and Ras family proteins in live cells, fluorescence lifetime imaging microscopy (FLIM)-based quantitative fluorescence resonance energy transfer (FRET) measurements were carried out. […] Figure 4: Real time cell analysis (RTCA) of PANC-TUI cell proliferation. PANC-TUI is a K-Ras dependent pancreatic tumor cell.

interaction of Rheb with PDEδ, sequence (O43924 whole entry): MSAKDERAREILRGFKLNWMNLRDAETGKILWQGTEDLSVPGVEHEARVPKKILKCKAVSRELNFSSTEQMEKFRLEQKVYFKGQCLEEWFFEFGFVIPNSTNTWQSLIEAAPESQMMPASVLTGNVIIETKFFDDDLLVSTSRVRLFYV

For `c1ccc(Cn2c(-c3ccc(OC[C@H](C4CCNCC4)n4c(-c5ccccc5)nc5ccccc54)cc3)nc3ccccc32)cc1` [(S)-9, (S)-1-Benzyl-2-(4-(2-(2-phenyl-1H-benzo[d]imidazol-1-yl)-2-(piperidin-4-yl)ethoxy)phenyl)-1H-benzo[d]imidazole], the “interaction between mCitrine-Rheb and mCherry-PDEδ” value in assay [1] was “more rapidly (within one minute) and more strongly reduced”. Also, the mCherry-K-Ras redistribution entry in assay [2] and in assay [3] was “loss of K-Ras spatial organization” in each case. The “Proliferation of CAPAN-1 cells” value in the assay on CAPAN-1 cells is listed as “inhibited strongly”. The “activation of Erk” value in the assay on Erk was “attenuated activation of Erk”. Further, the PANC-TUI cell proliferation result in the assay with PANC-TUI cells is “stopped proliferating and underwent cell death within a few hours”.

Source of the values: patent EP2698367A1, “Benzimidazoles for the treatment of cancer” (Max-Planck-Gesellschaft zur Förderung der Wissenschaften …, priority 2012, dated 2014).
